Data from ChEMBL document CHEMBL1152408, “Characterization of a Dispiroketal Spirolide Subclass from Alexandrium ostenfeldii” (J Nat Prod, 2009).

What was measured:
Format in all cases: organism-based
Mus musculus [1] = assay: Toxicity in ip dosed mouse; details: in vivo
Mus musculus [2] = assay: Toxicity in ip dosed mouse assessed as transient lethargy up to 2000 ug/kg; details: in vivo, 2 mg/kg
Mus musculus [3] = assay: Toxicity in ip dosed mouse assessed as transient hunching up to 2000 ug/kg; details: in vivo, 2 mg/kg

| SMILES | LD50 (Mus musculus [1]) [µg/kg] | Activity (Mus musculus [2]) | Activity (Mus musculus [3]) |
| --- | --- | --- | --- |
| C=C1CCCC2=NC[C@H](C)[C@@H](C)C[C@@]23CCC([C@@H]2C=C(C)C(=O)O2)=C(C)[C@@H]3/C=C(\C)CC[C@@H]2CC[C@]3(COC[C@]4(O[C@H]1CC[C@@]4(C)O)[C@@H]3O)O2 | 6.9 | – | – |
| C=C1CCCC2=NC[C@H](C)[C@@H](C)C[C@@]23CCC([C@@H]2C=C(C)C(=O)O2)=C(C)[C@@H]3/C=C(\C)[C@@H](O)C[C@@H]2CC[C@@]3(CC[C@@]4(O[C@@H](CC[C@@]4(C)O)C1)O3)O2 | 6.9 | – | – |
| C=C1CCCC2=NC[C@H](C)CC[C@@]23CCC([C@@H]2C=C(C)C(=O)O2)=C(C)[C@@H]3/C=C(\C)[C@@H](O)C[C@H]2O[C@]3(CC[C@@]4(O[C@@H](CC[C@@]4(C)O)C1)O3)C[C@H]2C [SPIROLIDE A] | 6.9 | – | – |
| C=C1CCCC2=NC[C@H](C)CC[C@@]23CCC([C@@H]2CC(C)C(=O)O2)=C(C)[C@@H]3/C=C(\C)[C@@H](O)C[C@H]2O[C@]3(CC[C@@]4(O[C@@H](CC[C@@]4(C)O)C1)O3)C[C@H]2C (some centres not stated) [SPIROLIDE B] | 6.9 | – | – |
| C=C1CCCC2=NC[C@H](C)[C@@H](C)C[C@@]23CCC([C@@H]2C=C(C)C(=O)O2)=C(C)[C@@H]3/C=C(\C)[C@@H](O)C[C@H]2O[C@]3(CC[C@@]4(O[C@@H](CC[C@@]4(C)O)C1)O3)C[C@H]2C [SPIROLIDE C] | 6.9 | – | – |
| C=C1CCCC2=NC[C@H](C)[C@@H](C)C[C@@]23CCC([C@@H]2C=C(C)C(=O)O2)=C(C)[C@@H]3/C=C(\C)[C@@H](O)C[C@H]2O[C@@]3(C[C@H]2C)O[C@@H](CC[C@@]3(C)O)C1 [Spirolide H] | – | Non-toxic | Non-toxic |
